Source: US8952024B2, “Herbicidal pyrimidone derivatives” (E I du Pont de Nemours and Company, priority 2009, dated 2015)

What was measured:
[1] = system: sprangletop (bearded (i.e. Brdd.) sprangletop, Leptochloa fascicularis); test: Test E flooded paddy rice and weeds; format: in vivo; settings: applied to paddy water, 21 days, scale 0 to 100
Outline: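 Greenhouse paddy test: compound added into 3 cm floodwater when crop and weeds reached 2.0 to 2.5 leaves; depth held throughout. Soil was Tama silt loam, 2.6% organic matter; 30/27° C, 16-h light. Injury scored visually at 21 days on a 0 (no effect) to 100 (complete control) scale.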

[2] = system: green foxtail (Setaria viridis); test: Test C plant response; format: in vivo; settings: Preemergence, scale 0 to 100
[3] = system: wild radish (Raphanus raphanistrum); test: Test C plant response; format: in vivo; settings: Preemergence, scale 0 to 100
[4] = system: winter wheat (Triticum aestivum); test: Test C plant response; format: in vivo; settings: Preemergence, scale 0 to 100
[5] = system: spring barley (Hordeum vulgare); test: Test C plant response; format: in vivo; settings: Preemergence, scale 0 to 100
[6] = system: field poppy (Papaver rhoeas); test: Test C plant response; format: in vivo; settings: Preemergence, scale 0 to 100
[7] = system: canarygrass (Phalaris minor); test: Test C plant response; format: in vivo; settings: Preemergence, 125 g ai/ha; scale 0 to 100
[8] = system: Russian thistle (Salsola iberica); test: Test C plant response; format: in vivo; settings: Preemergence, scale 0 to 100
[9] = system: windgrass (Apera spica-venti); test: Test C plant response; format: in vivo; settings: Preemergence, scale 0 to 100
[10] = system: field violet (Viola arvensis); test: Test C plant response; format: in vivo; settings: Preemergence, scale 0 to 100
[11] = system: blackgrass (Alopecurus myosuroides); test: Test C plant response; format: in vivo; settings: Preemergence, scale 0 to 100
[12] = system: deadnettle (henbit deadnettle, Lamium amplexicaule); test: Test C plant response; format: in vivo; settings: Preemergence, scale 0 to 100
[13] = system: galium (catchweed bedstraw, Galium aparine); test: Test C plant response; format: in vivo; settings: Preemergence, scale 0 to 100
[14] = system: spring wheat (Triticum aestivum); test: Test C plant response; format: in vivo; settings: Preemergence, scale 0 to 100

COc1ccc(-n2c(-c3ccccc3)ncc(C(=O)C3=C(O)CCCC3=O)c2=O)cc1OC [Compound 218]
95: Plant response rating, Sprangletop, Brdd., Flood ([1]; 250 g ai/ha)
70: Plant response rating, Sprangletop, Brdd., Flood ([1]; 64 g ai/ha) | Plant response rating, Sprangletop, Brdd., Flood ([1]; 125 g ai/ha)
65: Plant response rating, Sprangletop, Brdd., Flood ([1]; 32 g ai/ha)

Cc1ccccc1-n1c(-c2ccccc2)ncc(C(=O)C2=C(O)CCCC2=O)c1=O [Compound 12]
20: Plant response rating: Canarygrass [7] | Plant response rating: Windgrass ([9]; 16 g ai/ha) | Plant response rating: Windgrass ([9]; 31 g ai/ha)
50: Plant response rating: Field Poppy ([6]; 16 g ai/ha) | Plant response rating: Deadnettle ([12]; 31 g ai/ha)
40: Plant response rating: Windgrass ([9]; 62 g ai/ha) | Plant response rating: Windgrass ([9]; 125 g ai/ha)
98: Plant response rating: Field Poppy ([6]; 62 g ai/ha) | Plant response rating: Field Poppy ([6]; 125 g ai/ha)
100: Plant response rating: Deadnettle ([12]; 125 g ai/ha)
35: Plant response rating: Deadnettle ([12]; 16 g ai/ha) | Plant response rating: Galium ([13]; 62 g ai/ha) | Plant response rating: Galium ([13]; 125 g ai/ha)
80: Plant response rating: Field Poppy ([6]; 31 g ai/ha)
0: Plant response rating: Foxtail, Green ([2]; 62 g ai/ha) | Plant response rating: Foxtail, Green ([2]; 125 g ai/ha) | Plant response rating: Foxtail, Green ([2]; 16 g ai/ha) | Plant response rating: Foxtail, Green ([2]; 31 g ai/ha) | Plant response rating: Radish, Wild ([3]; 62 g ai/ha) | Plant response rating: Radish, Wild ([3]; 125 g ai/ha) | Plant response rating: Radish, Wild ([3]; 16 g ai/ha) | Plant response rating: Radish, Wild ([3]; 31 g ai/ha) | Plant response rating: Wheat, Winter ([4]; 62 g ai/ha) | Plant response rating: Wheat, Winter ([4]; 125 g ai/ha) | Plant response rating: Wheat, Winter ([4]; 16 g ai/ha) | Plant response rating: Wheat, Winter ([4]; 31 g ai/ha) | Plant response rating: Barley, Spring ([5]; 62 g ai/ha) | Plant response rating: Barley, Spring ([5]; 125 g ai/ha) | Plant response rating: Barley, Spring ([5]; 16 g ai/ha) | Plant response rating: Barley, Spring ([5]; 31 g ai/ha) | Plant response rating: Russian Thistle ([8]; 62 g ai/ha) | Plant response rating: Russian Thistle ([8]; 16 g ai/ha) | Plant response rating: Russian Thistle ([8]; 31 g ai/ha) | Plant response rating: Field Violet ([10]; 62 g ai/ha) | Plant response rating: Field Violet ([10]; 125 g ai/ha) | Plant response rating: Field Violet ([10]; 16 g ai/ha) | Plant response rating: Field Violet ([10]; 31 g ai/ha) | Plant response rating: Blackgrass ([11]; 62 g ai/ha) | Plant response rating: Blackgrass ([11]; 125 g ai/ha) | Plant response rating: Blackgrass ([11]; 16 g ai/ha) | Plant response rating: Blackgrass ([11]; 31 g ai/ha) | Plant response rating: Galium ([13]; 16 g ai/ha) | Plant response rating: Galium ([13]; 31 g ai/ha) | Plant response rating: Wheat, Spring ([14]; 62 g ai/ha) | Plant response rating: Wheat, Spring ([14]; 125 g ai/ha) | Plant response rating: Wheat, Spring ([14]; 16 g ai/ha) | Plant response rating: Wheat, Spring ([14]; 31 g ai/ha)
90: Plant response rating: Deadnettle ([12]; 62 g ai/ha)

O=C1CCCC(O)=C1C(=O)c1cnc(-c2ccccc2)n(Cc2ccccc2)c1=O [Compound 17, 5-[(2-hydroxy-6-oxo-1-cyclohexen-1-yl)carbonyl]-2-phenyl-3-(phenylmethyl)-4(3H)-pyrimidinone]
57 to 58 °C: melting point
